Reference: article PMC3094704, “S-Petasin, the Main Sesquiterpene of Petasites formosanus, Inhibits Phosphodiesterase Activity and Suppresses Ovalbumin-Induced Airway Hyperresponsiveness” (Evidence-based Complementary and Alternative Medicine : eCAM, 2011)
Structures can show the parent of a compound that is named as a salt.

Legend:
guinea pig trachea = settings: cited from earlier work
[1] = tested on: cAMP-phosphodiesterase (PDE); set-up: method as in PMID 11345692; settings: cited from earlier work
PDE2 = target: T1, PDE2 (Cavia porcellus, UniProt A0A286XUV5); assay: Inhibition of PDE2 activity (two-step radioenzymatic assay); type: biochemical, guinea pig; settings: mean ± SEM (n); read-out: IC50 on PDE isozyme 2
T1 sequence (A0A286XUV5 22-936): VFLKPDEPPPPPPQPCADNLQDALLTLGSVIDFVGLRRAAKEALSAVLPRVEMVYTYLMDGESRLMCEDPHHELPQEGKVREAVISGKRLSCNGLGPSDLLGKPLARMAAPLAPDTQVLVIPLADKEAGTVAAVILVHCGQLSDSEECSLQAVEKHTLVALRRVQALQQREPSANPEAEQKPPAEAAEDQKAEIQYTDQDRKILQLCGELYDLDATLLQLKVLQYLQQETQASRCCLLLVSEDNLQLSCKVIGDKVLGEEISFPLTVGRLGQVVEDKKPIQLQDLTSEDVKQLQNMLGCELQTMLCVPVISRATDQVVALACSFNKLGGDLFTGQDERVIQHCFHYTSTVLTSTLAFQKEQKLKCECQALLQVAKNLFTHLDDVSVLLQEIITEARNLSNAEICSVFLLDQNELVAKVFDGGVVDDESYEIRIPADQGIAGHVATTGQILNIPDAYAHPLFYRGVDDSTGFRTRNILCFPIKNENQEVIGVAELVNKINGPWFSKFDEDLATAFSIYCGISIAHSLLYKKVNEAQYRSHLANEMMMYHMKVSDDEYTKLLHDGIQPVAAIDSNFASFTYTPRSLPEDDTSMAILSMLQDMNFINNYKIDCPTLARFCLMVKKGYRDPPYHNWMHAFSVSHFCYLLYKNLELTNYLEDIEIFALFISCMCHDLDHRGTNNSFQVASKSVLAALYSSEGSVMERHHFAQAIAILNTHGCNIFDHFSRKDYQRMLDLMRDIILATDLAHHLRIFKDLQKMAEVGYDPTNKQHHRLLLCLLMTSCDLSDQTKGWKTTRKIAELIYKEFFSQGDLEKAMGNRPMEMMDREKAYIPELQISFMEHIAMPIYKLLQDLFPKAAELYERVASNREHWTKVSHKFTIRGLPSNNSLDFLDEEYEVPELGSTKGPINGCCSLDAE
Protocol: Activities of PDE1–5, partially separated from guinea pig lungs and hearts according to the method described by Ko et al., were measured with a two-step procedure according to the method of Thompson and Appleman, using cAMP with [^3H]-cAMP or cGMP with [^3H]-cGMP as substrates. The enzyme pμreparation (25 μL) was incubated for 30 min at 37°C in a total assay volume of […] containing 50 mM Tris-HCl (pH 7.4), 3 mM MgCl2, 1 mM dithiothreitol, 0.05% BSA, 1 μM cAMP with 0.2 μCi [^3H]-cAMP as a substrate alone or in the presence of 0.1 units calmodulin with 10 μM CaCl2 or 5 μM cGMP, and 1 μM cGMP with 0.2 μCi [^3H]-cGMP as another substrate alone or in the presence of 0.1 units calmodulin with 10 μM CaCl2. […] The reagents and homogenate were mixed on ice, and the reaction was initiated by transferring the mixture to a water bath at 37°C. Following a 30-min incubation, the reaction was stopped by transferring the reaction vessel to a bath of boiling water for 3 min. After cooling on ice, 20 μL of a 1 mg/mL solution of C. atrox snake venom was added to the reaction mixture, and the mixture was incubated at 37°C for 10 min. Unreacted [^3H]-cAMP or [^3H]-cGMP was removed by the addition of 500 μL of a 1-in-1 Tris-HCl (40 mM) buffer suspension of Dowex resin (1 × 8-200) with incubation on ice for 30 min. […]

PDE1 = assay: Inhibition of PDE1 activity (two-step radioenzymatic assay); type: biochemical, guinea pig; settings: mean ± SEM (n); read-out: IC50 on PDE isozyme 1
Protocol: Activities of PDE1–5, partially separated from guinea pig lungs and hearts according to the method described by Ko et al., were measured with a two-step procedure according to the method of Thompson and Appleman, using cAMP with [^3H]-cAMP or cGMP with [^3H]-cGMP as substrates. The enzyme pμreparation (25 μL) was incubated for 30 min at 37°C in a total assay volume of […] containing 50 mM Tris-HCl (pH 7.4), 3 mM MgCl2, 1 mM dithiothreitol, 0.05% BSA, 1 μM cAMP with 0.2 μCi [^3H]-cAMP as a substrate alone or in the presence of 0.1 units calmodulin with 10 μM CaCl2 or 5 μM cGMP, and 1 μM cGMP with 0.2 μCi [^3H]-cGMP as another substrate alone or in the presence of 0.1 units calmodulin with 10 μM CaCl2. In tests of enzyme inhibition, the reaction mixture contained 10 μL of vehicle or inhibitors, at various concentrations of S-petasin or selective PDE1–5 inhibitors, such as vinpocetin [22], EHNA [23], milrinone, Ro 20-1724 [25] and zaprinast, as reference drugs. The reagents and homogenate were mixed on ice, and the reaction was initiated by transferring the mixture to a water bath at 37°C. Following a 30-min incubation, the reaction was stopped by transferring the reaction vessel to a bath of boiling water for 3 min. After cooling on ice, 20 μL of a 1 mg/mL solution of C. atrox snake venom was added to the reaction mixture, and the mixture was incubated at 37°C for 10 min. […]

## S-isopetasin
Guinea pig trachea; precontracted by CCh and KCl, read-out: IC50 in relaxing guinea pig trachea
  IC50: ~10 µM
Guinea pig trachea; precontracted by histamine and LT D4
  Relaxing effect on guinea pig trachea: almost no effect
[1]
  Inhibition of cAMP-phosphodiesterase (PDE) activity: not

## CCCCCC[C@@H]([C@@H](C)O)n1cnc2c(N)ncnc21 (racemic) [EHNA, erythro-9-(2-hydroxy-3-nonyl)-adenine HCl]
PDE2
  IC50: 6.5 ± 1 µM

## CCOC(=O)C1=C[C@]2(CC)CCCN3CCc4c(n1c1ccccc41)[C@@H]32 [vinpocetin, Vinpocetine, reference compound]
PDE1
  IC50: 36.5 ± 8.8 µM
